Here are results for four compounds from patent publication US20230072164A1, “GRANULAR PHARMACEUTICAL PRODUCT FOR ORAL ADMINISTRATION FROM A PRE-FILLED STRAW AND METHOD OF MANUFACTURING SUCH PHARMACEUTICAL PRODUCT” (ALTERNO LABS D.O.O., priority 2020, published 2023).

Holding throughout (type): physicochemical
Data set [1] can be described thus: Dissolution of coated paracetamol crystals in water (taste masking, non-compendial). The settings on record: 100 mL purified water, room temperature. How it is done: A non-compendial test was performed in order to simulate the taste masking efficinecy of polymer coat during drug sipping. Pure paracetamol crystals were used as reference material. 100 mL of purified water was transferred in an Erlenmeyer flask on a magnetic stirrer at room temperature. The test formulation containing 250 mg of paracetamol was suspended in the Erlenmeyer flask and aliquotes of 5.0 mL were withdrawn at intervals of 0.5, 1.0, 1.5, 2.0, 2.5, 3.0 and 5.0 minutes (±15% tolerance limit for time) and replaced with an equal volume of purified water (freshwater, maintained at the same temperature) at each sampling point. Samples were immediately filtered using 0.45 μm RC syringe filters.
Samples were appropriately diluted and analyzed by HPLC. The amount of drug release was calculated from a standard calibration curve, which was prepared on the day of the experiment.

The nature of data set [2]: Particle size distribution by laser diffraction (dry powder). As to the method: The particle size distribution of powder samples (crystals, coated crystals) was determined using a laser diffraction analyzer (Malvern Mastersizer 3000, Worcestershire, United Kingdom) connected to Aero S dry powder dispersion, as this technique enables measurement in the range between 100 nm and 3500 μm. Approximately 2-3 g of sample was put into the dosing device, air pressure was set to 1.2 bar for coated crystals and granulates (for micronized paracetamol the dispersing air pressure was set to 3.0 bar). Measurement was performed automatically when obscuration was in a range between 0.5 and 5%. Background measurements were performed for 10 seconds and the stabilization time delay before initialization (time before measurements after the desired obscuration was achieved) was set to 3 seconds and measurement duration to 5 seconds respectively. The nonspherical measurement mode approximation was used to determine the particle size distribution for paracetamol crystals and coated crystals. A refraction index and absorption rate for paracetamol were set to 1.62 and 0.01 respectively. The distribution results were expressed as three values: d10, where 10% of the particle population lies below the measured value; d50, the median value; and d90, where 90 percent of the population lies below the measured value.

Data set [3] can be described thus: Sessile drop water contact angle on compressed plates. Set-up: key to Observed sweling: — = not measurable; * = observed; ** = fast swelling; *** = very fast swelling. The settings on record: for Δ θ: decrease of water contact angle from 0 s to 30 s; for Observed sweling: during contact angle measurement; for θ at time 0 s (st. deviation) / θ at time 30 s (st. deviation): sessile drop water contact angle, 3 μL drop, flat surface plate, room temperature. How it is done: The water contact angle on compressed powders of the different polymers used as the first coating layer, trehalose and erythritol was measured with a Kruss sessile drop contact angle meter DSA100 (Krυss, Germany) at room temperature. 200 mg of powder was compressed with a Specac hydraulic press (Kent, England) with a 10 s dwell time at a pressure of 4×10^8 Pa. A circular punch and dye assembly (12 mm diameter) with polished stainless steel round punches were used for compression. At least six repetitions on three different plates of the same polymer or other two excipients were performed to ensure the reproducibility of results. Measurements were performed with 3 μL water drop and video recording (software DSA 1.90.0.14 Krυss, Germany) that enabled the determination of contact angles at time zero and 30 seconds later. Contact angles at these two-time points together with visual observation of surface swelling were taken as relevant parameters for polymers differentiation. In the same manner, trehalose and erythritol were also analyzed.

[4] abbreviates: laser diffraction, Comparative Example 1 and Example 2.
Setting [5] is: Example 3, coated crystals 250-500 μm, milled erythritol, final granules from high shear mixer.

On to `CC(=O)Nc1ccc(O)cc1` [Paracetamol—large crystals, uncoated, paracetamol], for which the “dissolution rate in water” value in data set [1] is listed as “dissoves much faster than from coated particles”. In data set [2] (setting [4]), this compound displayed a d10 of 208 μm, a d50 of 458 μm and a d90 of 772 μm.
As for `OC[C@@H](O)[C@@H](O)CO` [Erythritol, erythritol], in data set [2] (setting [5]), the d10 is reported as 7 μm, the d50 is reported as 46 μm and the d90 was 108 μm. Also, in data set [3], the “Δ θ” value is listed as 0 °, the Observed sweling entry is “—”, the “θ at time 0 s (st. deviation)” value is given as 0 ° and the “θ at time 30 s (st. deviation)” value is listed as 0 °.
In data set [2] (setting [4]), `CC(=O)Nc1ccc(O)cc1` [Paracetamol—milled, uncoated, paracetamol] gave a d10 of 5 μm, a d50 of 32 μm and a d90 of 152 μm.
In the case of `OC[C@H]1O[C@H](O[C@H]2O[C@H](CO)[C@@H](O)[C@H](O)[C@H]2O)[C@H](O)[C@@H](O)[C@@H]1O` [Trehalose, trehalose], in data set [3], the “Δ θ” value was determined as 4.8 °, the Observed sweling result is “—”, the “θ at time 0 s (st. deviation)” value is 13.4 (1.9) ° and the “θ at time 30 s (st. deviation)” value was 8.6 (2.0) °.
